# Laboratory results as given in US9476099B2 (TRUSTEES OF DARTMOUTH COLLEGE, priority 2012, dated 2016).
# System: gene promoters in NT2/D1-R1 control and DNMT3B knockdown cells
# Assay: Genome-wide promoter methylation analysis, HumanMethylation27 BeadChip (Table 15)
# Assay type: cell-based, human
# Conditions: sh-ctrl + 5aza
# Protocol: DNA methylation analysis was performed in samples in triplicate using the […] […] assay with the HumanMethylation27 BeadChip ([…]) and the BeadChip was scanned on the BeadArray Reader ([…]), according to the manufacturer's instructions. Raw data was normalized and analyzed with Genome Studio software ([…]). The HumanMethylation27 BeadChip assays 27,578 CpGs covering more than 14,000 genes, mostly from promoter regions. […] Hierarchical clustering was performed as stated above. HumanMethylation27 BeadChip data and gene expression microarray data were submitted to NCBI GEO.
compound,measurement,value
Nc1ncn([C@H]2C[C@H](O)[C@@H](CO)O2)c(=O)n1 [5aza],HOXB4 cg25145670 promoter methylation Mean,0.488
same,HRASLS cg08376864 promoter methylation Mean,0.853
same,HYPK cg00480356 promoter methylation Mean,0.818
same,ICAM1 cg08607082 promoter methylation Mean,0.244
same,IFI16 cg07463059 promoter methylation Mean,0.582
same,IFI44 cg07107453 promoter methylation Mean,0.513
same,IFNA2 cg13235447 promoter methylation Mean,0.697
same,IGF2AS cg20792294 promoter methylation Mean,0.323
same,IGFBP5 cg19008649 promoter methylation Mean,0.370
same,IGSF9 cg19111262 promoter methylation Mean,0.826
same,IHH cg17178336 promoter methylation Mean,0.709
same,IL2RG cg01361446 promoter methylation Mean,1.103
same,IL18 cg11304234 promoter methylation Mean,0.646
same,INPP5B cg10784030 promoter methylation Mean,0.366
same,ITGB3BP cg18464559 promoter methylation Mean,0.168
same,KA21 cg23776012 promoter methylation Mean,0.641
same,KCNA3 cg03483626 promoter methylation Mean,0.326
same,KCNAB3 cg14918082 promoter methylation Mean,0.852
same,KCNB2 cg11754206 promoter methylation Mean,0.551
same,KCNK10 cg17671157 promoter methylation Mean,1.059
same,KLK7 cg19953406 promoter methylation Mean,0.983
same,LAMB1 cg10064162 promoter methylation Mean,0.426
same,LDHD cg24429836 promoter methylation Mean,0.760
same,LIG4 cg08216792 promoter methylation Mean,0.356
same,LYNX1 cg24046110 promoter methylation Mean,0.430
same,MC3R cg19226099 promoter methylation Mean,1.057
same,MGC26856 cg07684809 promoter methylation Mean,0.489
same,MLNR cg02620013 promoter methylation Mean,0.755
same,MPHOSPH6 cg16119274 promoter methylation Mean,0.444
same,MSX1 cg03199651 promoter methylation Mean,0.288
same,MYOD1 cg24322623 promoter methylation Mean,0.931
same,NCKIPSD cg04244987 promoter methylation Mean,0.392
same,NDP cg11614809 promoter methylation Mean,0.756
same,NEFH cg16042149 promoter methylation Mean,1.041
same,NEIL2 cg14329976 promoter methylation Mean,0.360
same,NME5 cg13707560 promoter methylation Mean,1.225
same,NME5 cg25507001 promoter methylation Mean,0.889
same,NOC3L cg07270175 promoter methylation Mean,0.614
same,NOX4 cg17063929 promoter methylation Mean,0.483
same,NPAS1 cg09628601 promoter methylation Mean,0.553
same,NRXN1 cg10917619 promoter methylation Mean,0.867
same,OR1N1 cg14598387 promoter methylation Mean,0.606
same,OR10J1 cg15700197 promoter methylation Mean,0.679
same,PACS1 cg01663295 promoter methylation Mean,0.625
same,PCDHB13 cg14592099 promoter methylation Mean,0.747
same,PCDHB13 cg24435562 promoter methylation Mean,0.441
same,PCDHGA12 cg11647681 promoter methylation Mean,0.936
same,PCGF5 cg17001035 promoter methylation Mean,0.893
same,PEPD cg06546607 promoter methylation Mean,0.266
same,PEX5L cg02430692 promoter methylation Mean,0.511
same,PI3 cg02442161 promoter methylation Mean,0.857
same,PIGL cg05310071 promoter methylation Mean,0.351
same,POU3F3 cg20291049 promoter methylation Mean,0.387
same,POU4F2 cg24199834 promoter methylation Mean,0.287
same,PTCH2 cg15329642 promoter methylation Mean,0.789
same,PTPN5 cg17233601 promoter methylation Mean,0.801
same,RASGEF1A cg07871503 promoter methylation Mean,0.945
same,RBPSUHL cg21835643 promoter methylation Mean,1.018
same,REM1 cg12153542 promoter methylation Mean,0.664
same,REM1 cg26299767 promoter methylation Mean,0.727
same,RLN3R1 cg12238343 promoter methylation Mean,0.732
same,RPL39L cg07441272 promoter methylation Mean,0.691
same,RRM2B cg07125123 promoter methylation Mean,0.370
same,RYR1 cg05471297 promoter methylation Mean,0.480
same,S100A12 cg02813121 promoter methylation Mean,0.941
same,SCUBE2 cg01081263 promoter methylation Mean,0.693
same,SCUBE2 cg19237879 promoter methylation Mean,0.670
same,SEMA3E cg08274234 promoter methylation Mean,0.306
same,SEMA6C cg01958916 promoter methylation Mean,0.267
same,SEPN1 cg21187265 promoter methylation Mean,0.387
